Source: ChEMBL document CHEMBL5137054, “Xyloketal B Reverses Nutritional Hepatic Steatosis, Steatohepatitis, and Liver Fibrosis through Activation of the PPARα/PGC1α Signaling Pathway” (J Nat Prod, 2022)
Activity calls are given as the source filed them. No cut-off for these calls is given here.

What was measured:
Mus musculus [1] = test: Upregulation of carnitine O-palmitoyltransferase-1B enzyme expression in liver of HFD-induced C57BL/6J mouse model of NAFL administered intraperitoneally from week 7 to week 12 by immunoblotting analysis; assay type: functional; conditions: dose 20-40 mg/kg/day, route ip, time 6.0 weeks, DDE = dose-dependent effect
Mus musculus [2] = test: Reduction in hepatic steatosis in HFD-induced C57BL/6J mouse model of NAFL assessed as reduction in serum glucose level at 20 to 40 mg/kg/day, ip administered from week 7 to week 12; assay type: functional, organism-based; conditions: dose 20-40 mg/kg/day, time 6.0 weeks
Mus musculus [3] = test: Upregulation of ACAA1 enzyme expression in liver of HFD-induced C57BL/6J mouse model of NAFL administered intraperitoneally from week 7 to week 12 by immunoblotting analysis; assay type: functional; conditions: dose 20-40 mg/kg/day, route ip, time 6.0 weeks, DDE = dose-dependent effect
Mus musculus [4] = test: Upregulation of Cpt1b gene transcriptional level in HFD-induced C57BL/6J mouse model of NAFL at 20 to 40 mg/kg/day, ip administered from week 7 to week 12 by qRT-PCR analysis; assay type: functional, organism-based; conditions: dose 20-40 mg/kg/day, time 6.0 weeks
Mus musculus [5] = test: Antifibrotic activity against MCD-induced C57BL/6J mouse model of liver fibrosis assessed as reduction in collagen III level in liver at 20 to 40 mg/kg, ip administered from week 3 to week 6 by sirius red staining based light microscopic analysis; assay type: functional, organism-based; conditions: dose 20-40 mg/kg, time 4.0 weeks
Mus musculus [6] = test: Reduction in hepatic steatosis in HFD-induced C57BL/6J mouse model of NAFL assessed as reduction in HFD-induced relative liver weight at 20 to 40 mg/kg/day, ip administered from week 7 to week 12; assay type: functional, organism-based; conditions: dose 20-40 mg/kg/day, time 6.0 weeks
[7] = Toxicity in C57BL/6J mouse assessed as effect on serum ALT level at 40 mg/kg, ip; assay type: organism-based; conditions: in vivo
Mus musculus [8] = test: Upregulation of Cpt1c gene transcriptional level in HFD-induced C57BL/6J mouse model of NAFL at 20 to 40 mg/kg/day, ip administered from week 7 to week 12 by qRT-PCR analysis; assay type: functional, organism-based; conditions: dose 20-40 mg/kg/day, time 6.0 weeks
Mus musculus [9] = test: In vivo activation of PPARalpha/PGC1alpha pathway in HFD-induced C57BL/6J mouse model of NAFL assessed as increase in PGC1alpha expression in liver administered intraperitoneally from week 7 to week 12 by immunoblotting analysis; assay type: functional, organism-based; conditions: dose 20-40 mg/kg/day, route ip, time 6.0 weeks
Mus musculus [10] = test: In vivo activation of PPARalpha/PGC1alpha pathway in HFD-induced C57BL/6J mouse model of NAFL assessed as increase in PPARalpha expression in liver administered intraperitoneally from week 7 to week 12 by immunoblotting analysis; assay type: functional, organism-based; conditions: dose 20-40 mg/kg/day, route ip, time 6.0 weeks, DDE = dose-dependent effect
Mus musculus [11] = test: Anti-inflammatory activity against MCD-induced C57BL/6J mouse model of nonalcoholic steatohepatitis assessed as attenuation of VCAM1 expression in liver at 20 to 40 mg/kg/day, ip administered from week 3 to week 4 by immunoblotting analysis; assay type: functional, organism-based; conditions: dose 20-40 mg/kg/day, time 2.0 weeks
Mus musculus [12] = test: Reduction in hepatic steatosis in HFD-induced C57BL/6J mouse model of NAFL assessed as increase in serum ApoE level at 20 to 40 mg/kg/day, ip administered from week 7 to week 12; assay type: functional, organism-based; conditions: dose 20-40 mg/kg/day, time 6.0 weeks
Mus musculus [13] = test: Upregulation of long-chain specific acyl-CoA dehydrogenase gene transcriptional level in HFD-induced C57BL/6J mouse model of NAFL at 20 to 40 mg/kg/day, ip administered from week 7 to week 12 by qRT-PCR analysis; assay type: functional, organism-based; conditions: dose 20-40 mg/kg/day, time 6.0 weeks
Mus musculus [14] = test: Upregulation of Acaa1a gene transcriptional level in HFD-induced C57BL/6J mouse model of NAFL at 20 to 40 mg/kg/day, ip administered from week 7 to week 12 by qRT-PCR analysis; assay type: functional, organism-based; conditions: dose 20-40 mg/kg/day, time 6.0 weeks
[15] = Toxicity in C57BL/6J mouse assessed as effect on lipid droplets in hepatocytes at 40 mg/kg, ip by H&E staining analysis; assay type: organism-based; conditions: in vivo
[16] = Toxicity in C57BL/6J mouse assessed as effect on serum AST level at 40 mg/kg, ip; assay type: organism-based; conditions: in vivo
Mus musculus [17] = test: Upregulation of Cyp4a10 gene transcriptional level in HFD-induced C57BL/6J mouse model of NAFL at 20 to 40 mg/kg/day, ip administered from week 7 to week 12 by qRT-PCR analysis; assay type: functional, organism-based; conditions: dose 20-40 mg/kg/day, time 6.0 weeks
Mus musculus [18] = test: Upregulation of peroxisomal acyl-coenzyme A oxidase-1 enzyme expression in liver of HFD-induced C57BL/6J mouse model of NAFL at 15 mg/kg/day, ip administered from week 7 to week 12 by immunoblotting analysis; assay type: functional, organism-based; conditions: time 6.0 weeks
[19] = Toxicity in C57BL/6J mouse assessed as effect on serum ApoE level at 40 mg/kg, ip; assay type: organism-based; conditions: in vivo
Mus musculus [20] = test: Antifibrotic activity against MCD-induced C57BL/6J mouse model of liver fibrosis assessed as reduction in number of collagenous fibers in liver at 20 to 40 mg/kg, ip administered from week 3 to week 6 by masson's trichrome staining based light microscopic analysis; assay type: functional, organism-based; conditions: dose 20-40 mg/kg, time 4.0 weeks
Mus musculus [21] = test: Reduction in hepatic steatosis in HFD-induced C57BL/6J mouse model of NAFL assessed as reduction in serum ALT level at 20 to 40 mg/kg/day, ip administered from week 7 to week 12; assay type: functional, organism-based; conditions: dose 20-40 mg/kg/day, time 6.0 weeks
[22] = Toxicity in C57BL/6J mouse assessed as effect on relative liver weight at 40 mg/kg, ip; assay type: organism-based; conditions: in vivo
Mus musculus [23] = test: Antifibrotic activity against MCD-induced C57BL/6J mouse model of liver fibrosis assessed as reduction in collagen I level in liver at 20 to 40 mg/kg, ip administered from week 3 to week 6 by sirius red staining based light microscopic analysis; assay type: functional, organism-based; conditions: dose 20-40 mg/kg, time 4.0 weeks
Mus musculus [24] = test: Upregulation of carnitine O-palmitoyltransferase-1B enzyme expression in liver of HFD-induced C57BL/6J mouse model of NAFL at 15 mg/kg/day, ip administered from week 7 to week 12 by immunoblotting analysis; assay type: functional, organism-based; conditions: time 6.0 weeks
[25] = Toxicity in C57BL/6J mouse assessed as effect on serum triglyceride level at 40 mg/kg, ip; assay type: organism-based; conditions: in vivo
Mus musculus [26] = test: Upregulation of Acox2 gene transcriptional level in HFD-induced C57BL/6J mouse model of NAFL at 20 to 40 mg/kg/day, ip administered from week 7 to week 12 by qRT-PCR analysis; assay type: functional, organism-based; conditions: dose 20-40 mg/kg/day, time 6.0 weeks
[27] = Toxicity in C57BL/6J mouse assessed as effect on serum LDL level at 40 mg/kg, ip; assay type: organism-based; conditions: in vivo
Mus musculus [28] = test: Anti-inflammatory activity against MCD-induced C57BL/6J mouse model of nonalcoholic steatohepatitis assessed as downregulation of interleukin 6 expression in liver at 20 to 40 mg/kg/day, ip administered from week 3 to week 4 by immunoblotting analysis analysis; assay type: functional, organism-based; conditions: dose 20-40 mg/kg/day, time 2.0 weeks
[29] = Toxicity in C57BL/6J mouse assessed as effect on serum cholesterol level at 40 mg/kg, ip; assay type: organism-based; conditions: in vivo
Mus musculus [30] = test: Upregulation of Cyp4a14 gene transcriptional level in HFD-induced C57BL/6J mouse model of NAFL at 20 to 40 mg/kg/day, ip administered from week 7 to week 12 by qRT-PCR analysis; assay type: functional, organism-based; conditions: dose 20-40 mg/kg/day, time 6.0 weeks
[31] = Toxicity in C57BL/6J mouse assessed as effect on serum glucose level at 40 mg/kg, ip; assay type: organism-based; conditions: in vivo

C[C@H]1CO[C@]2(C)Oc3cc(O)c4c(c3C[C@H]12)O[C@@]1(C)OC[C@H](C)[C@H]1C4
Activity (Mus musculus [1]): Dde
Activity (Mus musculus [2]): Active
Activity (Mus musculus [3]): Dde
Activity (Mus musculus [4]): Active
Activity (Mus musculus [5]): Active
Activity (Mus musculus [6]): Active
Activity [7]: Non-Toxic
Activity (Mus musculus [8]): Active
Activity (Mus musculus [9]): Active
Activity (Mus musculus [10]): Dde
Activity (Mus musculus [11]): Active
Activity (Mus musculus [12]): Active
Activity (Mus musculus [13]): Active
Activity (Mus musculus [14]): Active
Activity [15]: Non-Toxic
Activity [16]: Non-Toxic
Activity (Mus musculus [17]): Active
Activity (Mus musculus [18]): Active
Activity [19]: Non-Toxic
Activity (Mus musculus [20]): Active
Activity (Mus musculus [21]): Active
Activity [22]: Non-Toxic
Activity (Mus musculus [23]): Active
Activity (Mus musculus [24]): Active
Activity [25]: Non-Toxic
Activity (Mus musculus [26]): Active
Activity [27]: Non-Toxic
Activity (Mus musculus [28]): Active
Activity [29]: Non-Toxic
Activity (Mus musculus [30]): Active
Activity [31]: Non-Toxic
